The source of these data is patent publication US20230287316A1, “INTER-ORGAN PLATFORM WITH TISSUE-SPECIFIC NICHES FOR A MICROPHYSIOLOGICAL SYSTEM ON A CHIP” (THE TRUSTEES OF COLUMBIA UNIVERSITY IN THE CITY OF NEW YORK, priority 2020, published 2023).

What all share (type): cell-based, human
In data set [1] the test system is non-metastatic TE-ES (RD-ES) bone tumor. Nature of the data set: Linsitinib on non-metastatic engineered ES bone tumors (TE-ES) cultured in isolation. The text has this:
FIGS. 31A-E show aspects of the evaluation of the dose-dependent effects of doxorubicin and linsitinib on engineered non-metastatic and metastatic ES bone tumors. […] An MTT viability assay was used to determine drug toxicity, with luminescence generated by viable cells measured at the endpoint (10^4 cells per well, mean± s.e.m., n = 3). […] Tumors are outlined by white dashes and validated using corresponding H&E stains of the identical loci. All scale bars: 250 µm.
(§1) FIGS. 32A-D show aspects of responses of human engineered bone ES tumors and cardiac tissues to linsitinib in isolated platform chambers. […] Luminescence as a function of cancer cell number and viability was measured (mean± s.e.m., n = 6 for day 3, and n = 3 for day 7 and 21).
The effects of linsitinib were studied in an experiment performed according to the 3-week treatment cycle used in the clinical trial (3 days of drug administration followed by 4 days without the drug, in 3 cycles), with luminescence signal serving as an indicator of cancer cell viability within the TE-ES.
Supernatants were collected from each individual sample across the duration of the drug treatments and were analyzed for osteoblast function (OCN, OPN) and for cytotoxicity (LDH) (mean± s.e.m., n = 3).
Two weeks following the initiation of osteogenic differentiation, aggregates of ES tumor cells were prepared as described previously, using 0.3 × 10^6 cells per aggregate. After 1 week of culture, corresponding to the end of bone tissue culture (3 weeks), the primary ES cell aggregates were placed into the engineered bone constructs (3 aggregates per construct, placed apart of each other). Tumor models were established for two different types of primary ES cells: non-metastatic (RD-ES) and metastatic (SK-N-MC). Tissue engineered RD-ES and SK-N-MC tumors were cultured in the RPMI and EMEM media, respectively, supplemented with 10% FBS and 1% penicillin/streptomycin. Bone constructs cultured without tumor cell aggregates (TE-bone) in RPMI and EMEM media were used as controls.
To assess apoptosis, paraffin embedded tissue sections were first deparaffinized with CitriSolv, rehydrated with graded series of ethanol washes, and then stained with a Click-iT® TUNEL Alexa Fluor® imaging assay (Thermo Fisher Scientific). Following nuclear counterstaining with DAPI (Life Technologies), the TUNEL labelled slides were imaged with an IX81 inverted fluorescent microscope (Olympus) and a Pike F032B camera (ALLIED Vision), using NIS-Elements AR software, and processed using ImageJ (NIH). Four representative images per condition were then analyzed using the previously developed automatic TUNEL cell counter plugin for ImageJ to quantify DAPI^+ cells and TUNEL^+ cells.
(§2) Cell viability was analyzed using a previously established protocol.^59 Cancer cell viability was measured for GFP-Luciferase labelled cancer cells using ONE-Glo luciferase substrate that was prepared according to manufacturer’s protocol (Promega). Samples were collected following 3, 7, and 21 days cycles of linsitinib treatment. Where noted, longitudinal cell viability was also assessed using luminescence, though at the cost of signal strength. Briefly, in vivo grade VivoGlo™ Luciferin (Promega) was made at a 200x stock concentration (30 mg/ml) in water, added to sample culture media at a 1:200 dilution, and scanned using a spectrophotometer (Biotek).

Data set [2] relates to non-metastatic ES bone tumor tissues. Nature of the data set: Linsitinib on non-metastatic ES bone tumor in the integrated platform with microfluidic perfusion. Particulars: 12 µM. On the procedure: as §2, with “(Biotek). Some of the IC50 values were determined using cell viability data generated using an MTT assay (RealTime-Glo™ MT Cell Viability Assay, Promega) that were analyzed according to manufacturer’s protocol.” for “(Biotek).”
(§3) Osteocalcin (OCN), osteopontin (OPN), and lactic acid dehydrogenase (LDH) secreted levels were all measured using a similar approach. Supernatants were isolated from controls and drug treated TE-ES and equal amounts were used in each assay according to the manufacturer’s instructions. For OCN a Human Osteocalcin Quantikine^R ELISA (R&D Systems) was used, while for OPN it was a Human Osteopontin Quantikine^R ELISA (R&D Systems). LDH secretion was determined using a Lactate Dehydrogenase Assay Kit (Colorimetric; Abcam).

Data set [3] concerns engineered cardiac tissues. In words: Linsitinib on engineered cardiac tissues cultured in isolation. Particulars: isolated. On the procedure: as §1
Specifically, linsitinib was dissolved at a 10 mM concentration in DMSO (Corning) and mixed in with the respective cell medium at a […] concentration unless otherwise noted. Vehicle treatments involved just the addition of DMSO at identical volumes as a control. Tissues were randomly assigned to experimental groups. Medium was changed every day.
To measure the cardiac contractility online, we took contractility videos of the tissues that were analyzed using the native MATLAB code we previously developed. Tissue contractility was measured by tracking the change in tissue area as a function of time. Acquired video frames were inverted and an automated intensity threshold was used to identify cell location in the video frame. First, a baseline time point in the video corresponding to a relaxed tissue state was selected. Absolute differences in cell area from the baseline frame were then calculated to create a time course of cell area changes over time. The resulting time courses were analyzed using a native MATLAB (MATHWorks) automated peak finding algorithm to determine locations of maximum cell contractions in the time profiles. Beat period lengths were determined from the length of time between the pairs of local maxima, and the beat frequencies were determined by inverting beat periods. The rate of proarrhythmic events was calculated by the ratio of the number of proarrhythmic events over the total number of beats.

Data set [4] has as its system non-metastatic RD-ES cell line. In words: Linsitinib 12 µM on non-metastatic ES cell monolayers, luminescence viability. Particulars: 12 µM over 72 hours. On the procedure:
MTT viability assay was used to determine drug toxicity, with luminescence generated by viable cells measured at the endpoint (10^4 cells per well, mean± s.e.m., n = 3). […] In order to determine cancer cell viability, cells were lysed and treated with luciferin using a Bright-Glo™ assay, with subsequent luminescence measured (10^4 cells per well, mean± s.e.m., n = 3).
Both culture media were supplemented with 10% FBS and 1 % penicillin/streptomycin.
as §2, with “(Biotek). Some of the IC50 values were determined using cell viability data generated using an MTT assay (RealTime-Glo™ MT Cell Viability Assay, Promega) that were analyzed according to manufacturer’s protocol.” for “(Biotek).”

For data set [5], the system named is non-metastatic TE-ES bone tumor. Nature of the data set: Linsitinib on non-metastatic TE-ES in 1:1 mixed media. Particulars: 12 µM regimen. How it is done: as §2, with “(Biotek). Some of the IC50 values were determined using cell viability data generated using an MTT assay (RealTime-Glo™ MT Cell Viability Assay, Promega) that were analyzed according to manufacturer’s protocol.” for “(Biotek).”
as §3

Where [6] appears, read: 12 µM, 3-week regimen, supernatants.

Consider `C[C@]1(O)C[C@@H](c2nc(-c3ccc4ccc(-c5ccccc5)nc4c3)c3c(N)nccn32)C1` [linsitinib], for which the “response to linsitinib concentration (luminescence viability)” value in data set [1] (0, 1.2, 12, and 120 µM for 72 hours) is reported as “dose-dependent response”. For the same compound, in data set [1] (12 µM), the “apoptosis (TUNEL assay)” value is given as “increases in apoptosis” and the “cell viability (luminescence)” value is listed as “significant reduction in cell viability”. For the same compound, in data set [1] (setting [6]), the “LDH secretion (cytotoxicity)” value is “spiked in both models immediately following drug administration, but significantly more so” and the Osteocalcin secretion entry is “decreased”. Further, in data set [1] (12 µM, 21-day clinical treatment regimen), the “cancer cell population (luminescence)” value was “initial decrease in cancer cell population in the non-metastatic model and this population appeared unable to continue expanding”. For the same compound, the “drug response (luminescence)” value in data set [1] (12 µM, after 3 days) is on record as “significant drug response”. Further, the osteopontin secretion entry in data set [1] (12 µM, throughout the 21 days) is “significantly increased”. The “drug response of tumors derived from sorted linsitinib-resistant cells” value in data set [1] (second 21-day 12 µM treatment regimen) is reported as “significant initial drug response”. Besides, the “drug response (luminescence), immediate exposure” value in data set [2] (3 days, directly into the TE-ES tissue chamber) was “fast response to the drug”. In addition, the “drug response (luminescence), diffused exposure” value in data set [2] (3 days, introduced into the circulation) is recorded as “no response”. Besides, the “drug response (luminescence)” value in data set [2] (3 days, linsitinib into the reservoir) is “insignificant drug response”. Besides, the “Secretion of LDH, vehicle vs linsitinib treated” value in data set [2] (72 hours) was “no significant difference”. Also, in data set [3] (12 µM, after 3 days of exposure), the beating frequency entry is “increased beating frequency”. Further, in data set [3] (12 µM), the “rate of proarrhythmic events per beat” value is given as “around 36%”. The “response to subsequent isoproterenol exposure” value in data set [3] (after 12 µM linsitinib) is listed as “the inotropic response was not observed”. The “drug efficacy (luminescence viability)” value in data set [4] was “significant drug efficacy”. For the same compound, in data set [5], the OCN secretion result is “increased only slightly” and the “cancer cell population level (luminescence)” value is listed as ~ 30 % of their starting population.
